According to paper PMC6219668 (Oncotarget, 2018):

Tested on: panel of nearly 500 cancer cell lines
Assay: Cancer Cell Line Encyclopedia profiling, 3-day CellTiter-Glo
Format: cell-based
Settings: Homo sapiens

CN(C)C(=O)c1cc2cnc(Nc3ccc(N4CCNCC4)cn3)nc2n1C1CCCC1 [Ribociclib, 7-cyclopentyl-2-(5-piperazin-1-yl-pyridin-2-ylamino)-7H-pyrrolo[2,3-d]pyrimidine-6-carboxylic acid dimethylamide]
EC50 (HPAF-II): > 8 µM
IC50 (HPAF-II): > 8 µM
EC50 (HSC-2): > 8 µM
IC50 (HSC-2): > 8 µM
EC50 (HT1197): 1.84 µM
IC50 (HT1197): > 8 µM
EC50 (HT-29): > 8 µM
IC50 (HT-29): 5.83 µM
EC50 (HT-144): > 8 µM
IC50 (HT-144): > 8 µM
EC50 (HT-1080): 2.73 µM
IC50 (HT-1080): > 8 µM
EC50 (HepG2): 0.231 µM
IC50 (HepG2): > 8 µM
EC50 (Hs 294T): 4.66 µM
IC50 (Hs 294T): > 8 µM
EC50 (Hs 683): > 8 µM
IC50 (Hs 683): > 8 µM
EC50 (Hs 695T): > 8 µM
IC50 (Hs 695T): > 8 µM
EC50 (Hs746T): 0.436 µM
IC50 (Hs746T): > 8 µM
EC50 (Hs-578T): > 8 µM
IC50 (Hs-578T): > 8 µM
EC50 (HuCCT-1): > 8 µM
IC50 (HuCCT-1): > 8 µM
EC50 (HuH-1): > 8 µM
IC50 (HuH-1): > 8 µM
EC50 (HuP-T3): > 8 µM
IC50 (HuP-T3): > 8 µM
EC50 (HuP-T4): 2.24 µM
IC50 (HuP-T4): 4.3 µM
EC50 (HuT78): > 8 µM
IC50 (HuT78): > 8 µM
EC50 (IGR-37): 0.207 µM
IC50 (IGR-37): > 8 µM
EC50 (IGROV-1): > 8 µM
IC50 (IGROV-1): > 8 µM
EC50 (IM95): > 8 µM
IC50 (IM95): > 8 µM
EC50 (IMR-32): 0.287 µM
IC50 (IMR-32): 1.56 µM
EC50 (JVM-3): > 8 µM
IC50 (JVM-3): > 8 µM
EC50 (Jurkat): 3.75 µM
IC50 (Jurkat): 3.69 µM
EC50 (KALS-1): > 8 µM
IC50 (KALS-1): > 8 µM
EC50 (KARPAS-299): 0.878 µM
IC50 (KARPAS-299): > 8 µM
EC50 (KARPAS-422): > 8 µM
IC50 (KARPAS-422): > 8 µM
EC50 (KCL-22): > 8 µM
IC50 (KCL-22): 6.12 µM
EC50 (KMS-11): 0.233 µM
IC50 (KMS-11): > 8 µM
EC50 (KMS-12-BM): > 8 µM
IC50 (KMS-12-BM): > 8 µM
EC50 (KNS-42): 0.134 µM
IC50 (KNS-42): > 8 µM
EC50 (KNS-62): 0.934 µM
IC50 (KNS-62): > 8 µM
IC50 (KU812): > 8 µM
EC50 (KYSE-30): > 8 µM
IC50 (KYSE-30): > 8 µM
EC50 (KYSE-70): 1.2 µM
IC50 (KYSE-70): 5.61 µM
EC50 (KYSE-140): 0.436 µM
IC50 (KYSE-140): > 8 µM
EC50 (KYSE-150): 2.92 µM
IC50 (KYSE-150): > 8 µM
EC50 (KYSE-180): 0.507 µM
IC50 (KYSE-180): > 8 µM
EC50 (KYSE-410): > 8 µM
IC50 (KYSE-410): > 8 µM
EC50 (KYSE-450): > 8 µM
IC50 (KYSE-450): > 8 µM
EC50 (KYSE-510): > 8 µM
IC50 (KYSE-510): > 8 µM
EC50 (KYSE-520): 6.06 µM
IC50 (KYSE-520): > 8 µM
EC50 (L-363): 1.04 µM
IC50 (L-363): > 8 µM
EC50 (L-428): 2.03 µM
IC50 (L-428): > 8 µM
EC50 (LCLC-103H): > 8 µM
IC50 (LCLC-103H): > 8 µM
EC50 (LN-18): > 8 µM
IC50 (LN-18): > 8 µM
EC50 (LN-229): > 8 µM
IC50 (LN-229): > 8 µM
EC50 (LOX IMVI): 2.92 µM
IC50 (LOX IMVI): > 8 µM
EC50 (LS-123): > 8 µM
IC50 (LS-123): > 8 µM
EC50 (LS-411N): 3.42 µM
IC50 (LS-411N): 1.71 µM
EC50 (LS-513): > 8 µM
IC50 (LS-513): > 8 µM
EC50 (Lu-99): 0.564 µM
IC50 (Lu-99): 3.69 µM
EC50 (M059J): > 8 µM
IC50 (M059J): > 8 µM
EC50 (MC116): > 8 µM
IC50 (MC116): > 8 µM
EC50 (MCF7): 0.343 µM
IC50 (MCF7): 1.37 µM
EC50 (MDA-MB-157): > 8 µM
IC50 (MDA-MB-157): > 8 µM
EC50 (MDA-MB-175-VII): > 8 µM
IC50 (MDA-MB-175-VII): > 8 µM
EC50 (MDA-MB-415): > 8 µM
IC50 (MDA-MB-415): > 8 µM
EC50 (MDA-MB-435S): 0.207 µM
IC50 (MDA-MB-435S): 0.775 µM
EC50 (MDA-MB-436): > 8 µM
IC50 (MDA-MB-436): > 8 µM
EC50 (MDA-MB-453): 0.166 µM
IC50 (MDA-MB-453): > 8 µM
EC50 (MDA-MB-468): 0.347 µM
IC50 (MDA-MB-468): > 8 µM
EC50 (MEC1): > 8 µM
IC50 (MEC1): > 8 µM
EC50 (MEG-01): 0.392 µM
IC50 (MEG-01): > 8 µM
EC50 (MES-SA): 0.839 µM
IC50 (MES-SA): > 8 µM
EC50 (MFE-280): > 8 µM
IC50 (MFE-280): > 8 µM
EC50 (MFE-296): 0.163 µM
IC50 (MFE-296): 0.848 µM
EC50 (MG-63): 0.239 µM
IC50 (MG-63): > 8 µM
EC50 (MIA PaCa-2): 2.36 µM
IC50 (MIA PaCa-2): 5.57 µM
EC50 (MINO): 0.266 µM
IC50 (MINO): 0.456 µM
EC50 (MKN-7): > 8 µM
IC50 (MKN-7): > 8 µM
EC50 (MKN-45): 0.23 µM
IC50 (MKN-45): > 8 µM
EC50 (MKN-74): > 8 µM
IC50 (MKN-74): > 8 µM
EC50 (MOLP-8): > 8 µM
IC50 (MOLP-8): > 8 µM
EC50 (MSTO-211H): > 8 µM
IC50 (MSTO-211H): > 8 µM
EC50 (Malme-3M): 0.00254 µM
IC50 (Malme-3M): > 8 µM
EC50 (MeWo): 2.57 µM
IC50 (MeWo): 2.57 µM
EC50 (NCI-H23): > 8 µM
IC50 (NCI-H23): > 8 µM
EC50 (NCI-H28): > 8 µM
IC50 (NCI-H28): 6.1 µM
EC50 (NCI-H211): 0.368 µM
IC50 (NCI-H211): > 8 µM
EC50 (NCI-H226): > 8 µM
IC50 (NCI-H226): > 8 µM
EC50 (NCI-H358): 6.86 µM
IC50 (NCI-H358): > 8 µM
EC50 (NCI-H441): 0.337 µM
IC50 (NCI-H441): > 8 µM
EC50 (NCI-H460): > 8 µM
IC50 (NCI-H460): > 8 µM
EC50 (NCI-H520): > 8 µM
IC50 (NCI-H520): > 8 µM
EC50 (NCI-H522): > 8 µM
IC50 (NCI-H522): > 8 µM
EC50 (NCI-H647): > 8 µM
IC50 (NCI-H647): > 8 µM
EC50 (NCI-H650): 2.43 µM
IC50 (NCI-H650): > 8 µM
EC50 (NCI-H661): > 8 µM
IC50 (NCI-H661): > 8 µM
EC50 (NCI-H727): 1.06 µM
IC50 (NCI-H727): > 8 µM
EC50 (NCI-H747): > 8 µM
IC50 (NCI-H747): > 8 µM
EC50 (NCI-H810): > 8 µM
IC50 (NCI-H810): > 8 µM
EC50 (NCI-H1048): > 8 µM
IC50 (NCI-H1048): > 8 µM
EC50 (NCI-H1092): > 8 µM
IC50 (NCI-H1092): > 8 µM
EC50 (NCI-H1155): 2.66 µM
IC50 (NCI-H1155): > 8 µM
EC50 (NCI-H1299): 1.51 µM
IC50 (NCI-H1299): > 8 µM
EC50 (NCI-H1355): 0.471 µM
IC50 (NCI-H1355): > 8 µM
EC50 (NCI-H1373): > 8 µM
IC50 (NCI-H1373): > 8 µM
EC50 (NCI-H1563): > 8 µM
IC50 (NCI-H1563): > 8 µM
EC50 (NCI-H1573): > 8 µM
IC50 (NCI-H1573): > 8 µM
EC50 (NCI-H1581): > 8 µM
IC50 (NCI-H1581): > 8 µM
EC50 (NCI-H1648): > 8 µM
IC50 (NCI-H1648): > 8 µM
EC50 (NCI-H1650): > 8 µM
IC50 (NCI-H1650): > 8 µM
EC50 (NCI-H1651): > 8 µM
IC50 (NCI-H1651): > 8 µM
EC50 (NCI-H1666): > 8 µM
